These compounds were tested on RSV strain A2 (assay: RSV antiviral cytoprotection assay in Hep2 cells (RSV-induced cytopathic effect, Cell TiterGlo)). Conditions: human respiratory syncytial virus, HEp-2, 0.5 μM compound; RSV A2-infected Hep2 cells; % inhibition calculated from 4-parameter dose response curve, normalized to 0% and 100%; read-out: Percent inhibition at 0.5 μM.
Assay type: cell-based, Respiratory Syncytial Virus (RSV)
Experimental: Antiviral activity against RSV was determined using an in vitro cytoprotection assay in Hep2 cells. […] The method used was similar to methods previously described in published literature (Chapman et al., Antimicrob Agents Chemother. 2007, 51(9):3346-53.)
Hep2 cells were obtained from ATCC (Manassas, VI) and maintained in MEM media supplemented with 10% fetal bovine serum and penicillin/streptomycin. Cells were passaged twice a week and kept at subconfluent stage. Commercial stock of RSV strain A2 (Advanced Biotechnologies, Columbia, Md.) was titered before compound testing to determine the appropriate dilution of the virus stock that generated desirable cytopathic effect in Hep2 cells.
For antiviral tests, Hep2 cells were seeded into 96-well plates 24 hours before the assay at a density of 3,000 cells/well. On a separate 96 well plate, compounds to be tested were serially diluted in cell culture media. Eight concentrations in 3-fold serial dilution increments were prepared for each tested compound and 100 uL/well of each dilution was transferred in duplicate onto plates with seeded Hep2 cells. Subsequently, appropriate dilution of virus stock previously determined by titration was prepared in cell culture media and 100 uL/well was added to test plates containing cells and serially diluted compounds. Each plate included three wells of infected untreated cells and three wells of uninfected cells that served as 0% and 100% virus inhibition control, respectively. Following the infection with RSV, testing plates were incubated for 4 days in a tissue culture incubator. After the incubation, RSV-induced cytopathic effect was determined using a Cell TiterGlo reagent (Promega, Madison, Wis.) followed by a luminescence read-out. The percentage inhibition was calculated for each tested concentration relative to the 0% and 100% inhibition controls and the EC50 value for each compound was determined by non-linear regression as a concentration inhibiting the RSV-induced cytopathic effect by 50%. Ribavirin (purchased from Sigma, St. Louis, Mo.) was used as a positive control for antiviral activity.
Compounds were also tested for antiviral activity against RSV in Hep2 cells using a 384 well format. Compounds were diluted in DMSO using a 10-step serial dilution in 3-fold increments via automation in 4 adjacent replicates each. Eight compounds were tested per dilution plate. 0.4 uL of diluted compounds were then stamped via Biomek into 384-well plates (Nunc 142761 or 164730 w/lid 264616) containing 20 μL of media (Mediatech Inc. MEM supplemented with Glutamine, 10% FBS and Pen/Strep). DMSO and a suitable positive control compound, such as 80 μM GS-329467 or 10 μM 427346 was used for the 100% and 0% cell killing controls, respectively.
Hep2 cells (1.0×10^5 cells/ml) were prepared as above in batch to at least 40 mls excess of the number of sample plates (8 mls cell mix per plate) and infected with vendor supplied (ABI) RSV strain A2 to arrive at an MOI of 1:1000 (virus:cell #) or 1:3000 (vol virus: cell vol). Immediately after addition of virus, the RSV infected Hep2 cell suspension was added to each stamped 384-well plate at 20 μl per well using a uFlow dispenser, giving a final volume of 40 μL/well, each with 2000 infected cells. The plates were then incubated for 5 days at 37° C. and 5% CO2. Following incubation, the plates were equilibrated to room temperature in a biosafety cabinet hood for 1.5 hrs and 40 μL of Cell-Titer Glo viability reagent (Promega) was added to each well via uFlow. Following a10-20 minute incubation, the plates were read using an EnVision or Victor Luminescence plate reader (Perkin-Elmer). The data was then uploaded and analyzed on the Bioinformatics portal under the RSV Cell Infectivity and 8-plate EC50-Hep2-384 or 8-plate EC50-Hep2-Envision protocols. […]
COc1cc(C)ccc1C(=O)N1CCCC[C@H]1c1cc2nc(N3C[C@@H](C#N)[C@@H](O)C3)c(C)cn2n1 [Compound 173] gave an inhibition at 0.5 µM of 98%. COc1cc2ccccc2cc1C(=O)N1CCCC[C@H]1c1cc2nc(N3CC[C@H](N)C3)c(C)cn2n1 [Compound 94] gave an inhibition at 0.5 µM of 88%. Compound COc1cc(C)ccc1C(=O)N1CCCC[C@H]1c1cc2nc(N3CC[C@H](N)C3)c(C)cn2n1 [Compound 92] has an inhibition at 0.5 µM of 100%. In the case of Cc1cn2nc([C@@H]3CCCCN3C(=O)c3ccnn3CC(F)(F)F)cc2nc1N1C[C@@H](C#N)[C@@H](O)C1 [Compound 189], the inhibition at 0.5 µM was 89%. COc1cccc(C(=O)N2CCCC[C@H]2c2cc3nc(N4CC[C@H](N)C4)c(C)cn3n2)c1C [Compound 84] showed an inhibition at 0.5 µM of 100%. In the case of COC(=O)[C@H]1C[C@H](N)CN1c1nc2cc([C@@H]3CCCCN3C(=O)c3cc(Cl)ccc3NS(C)(=O)=O)nn2cc1C [Compound 9], the inhibition at 0.5 µM was 99%. For Cc1cn2nc([C@@H]3CCCCN3C(=O)c3c(Cl)nc4ccccn34)cc2nc1N1C[C@@H](C#N)[C@@H](O)C1 [Compound 136], the inhibition at 0.5 µM was 83%. Cc1cn2nc([C@@H]3CCCCN3C(=O)c3cc(Cl)ccc3NS(C)(=O)=O)cc2nc1NC(CN)c1ccccc1 (some centres unmarked) [Compound 8] gave an inhibition at 0.5 µM of 90%. For Cc1cn2nc([C@@H]3CCCCN3C(=O)c3cc(Cl)ccc3NS(C)(=O)=O)cc2nc1N1C[C@@H](N)[C@H](c2ccccc2)C1 [Compound 4], the inhibition at 0.5 µM was 100%. Cc1cn2nc([C@@H]3CCCCN3C(=O)c3ccsc3)cc2nc1N1C[C@@H](C#N)[C@@H](O)C1 [Compound 181] was tested, and the inhibition at 0.5 µM was 83%. Compound Cc1cn2nc([C@@H]3CCCCN3C(=O)c3ccc(F)c(F)c3C)cc2nc1N1CC[C@H](N)C1 [Compound 72] has an inhibition at 0.5 µM of 100%. In the case of Cc1cn2nc([C@@H]3CCCCN3C(=O)c3cc(Cl)ccc3NS(C)(=O)=O)cc2nc1NCC1(N)CC1 [Compound 2], the inhibition at 0.5 µM was 100%. For Cc1ccc(C(=O)N2CCCC[C@H]2c2cc3nc(N4CC[C@H](N)C4)c(C)cn3n2)c(Cl)c1 [Compound 49], the inhibition at 0.5 µM was 99%. Work on Cc1cn2nc([C@@H]3CCCCN3C(=O)c3cn4ncccc4n3)cc2nc1N1CC[C@H](N)C1 [Compound 101] yielded an inhibition at 0.5 µM of 16%. With Cc1ccc(Cl)c(C(=O)N2CCCC[C@H]2c2cc3nc(N4C[C@@H](C#N)[C@@H](O)C4)c(C)cn3n2)c1 [Compound 170] the inhibition at 0.5 µM was 100%. Compound Cc1cn2nc([C@@H]3CCCCN3C(=O)c3cccc4c3CCCC4)cc2nc1N1C[C@@H](C#N)[C@@H](O)C1 [Compound 162] has an inhibition at 0.5 µM of 100%. Compound Cc1cn2nc([C@@H]3CCCCN3C(=O)c3cc(Cl)ccc3NS(C)(=O)=O)cc2nc1N1CCN[C@@H](C(C)C)C1 [Compound 22] has an inhibition at 0.5 µM of 55%. Cc1cn2nc([C@@H]3CCCCN3C(=O)c3cccc4[nH]cnc34)cc2nc1N1CC[C@H](N)C1 [Compound 43] showed an inhibition at 0.5 µM of 88%. Compound Cc1cc(C(=O)N2CCCC[C@H]2c2cc3nc(N4C[C@@H](C#N)[C@@H](O)C4)c(C)cn3n2)c2[nH]ncc2c1 [Compound 143] has an inhibition at 0.5 µM of 100%. With Cc1ccc(Br)c(C(=O)N2CCCC[C@H]2c2cc3nc(N4CC[C@H](N)C4)c(C)cn3n2)c1 [Compound 90] the inhibition at 0.5 µM was 100%. In the case of CCc1ccc(C(=O)N2CCCC[C@H]2c2cc3nc(N4CC[C@H](N)C4)c(C)cn3n2)nc1 [Compound 110], the inhibition at 0.5 µM was 36%. Cc1cn2nc([C@@H]3CCCCN3C(=O)c3ccc4ccccc4n3)cc2nc1N1CC[C@H](N)C1 [Compound 96] showed an inhibition at 0.5 µM of 65%. Compound Cc1cn2nc([C@@H]3CCCCN3C(=O)c3cccc(F)c3C(F)(F)F)cc2nc1N1CC[C@H](N)C1 [Compound 44] has an inhibition at 0.5 µM of 100%. CCS(=O)(=O)c1ccc(F)c(C(=O)N2CCCC[C@H]2c2cc3nc(N4CC[C@H](N)C4)c(C)cn3n2)c1 [Compound 67] was tested, and the inhibition at 0.5 µM was 21%. In the case of COc1cc2ccccc2cc1C(=O)N1CCCC[C@H]1c1cc2nc(N3C[C@@H](C#N)[C@@H](O)C3)c(C)cn2n1 [Compound 174], the inhibition at 0.5 µM was 58%. Cc1cn2nc([C@@H]3CCCCN3C(=O)c3c(Cl)c(C)nn3C)cc2nc1N1C[C@@H](C#N)[C@@H](O)C1 [Compound 182] showed an inhibition at 0.5 µM of 93%. Cc1cn2nc([C@@H]3CCCCN3C(=O)c3c(Cl)nc4ccccn34)cc2nc1N1CC[C@H](N)C1 [Compound 56] was tested, and the inhibition at 0.5 µM was 84%. Cc1cn2nc([C@@H]3CCCCN3C(=O)c3cc(F)ccc3C(F)(F)F)cc2nc1N1CC[C@H](N)C1 [Compound 109] was tested, and the inhibition at 0.5 µM was 100%. Work on Cc1cn2nc([C@@H]3CCCCN3C(=O)c3cc(Cl)ccc3NS(C)(=O)=O)cc2nc1N1C[C@@H](C#N)[C@@H](OC(=O)[C@H]2CCCN2)C1 [Compound 205] yielded an inhibition at 0.5 µM of 100%. For Cc1ccc(Br)cc1C(=O)N1CCCC[C@H]1c1cc2nc(N3C[C@@H](C#N)[C@@H](O)C3)c(C)cn2n1 [Compound 112], the inhibition at 0.5 µM was 100%. In the case of Cc1cn2nc([C@@H]3CCCCN3C(=O)c3cc(Cl)ccc3NS(C)(=O)=O)cc2nc1N1C[C@@H](N)C[C@@H]1C(=O)O [Compound 19], the inhibition at 0.5 µM was 70%. For Cc1cn2nc([C@@H]3CCCCN3C(=O)c3cc(Cl)ccc3NS(C)(=O)=O)cc2nc1N1C[C@@H](C#N)[C@@H](OP(=O)(O)O)C1 [Compound 192], the inhibition at 0.5 µM was 100%. With COc1cc2c(cc1C(=O)N1CCCC[C@H]1c1cc3nc(N4C[C@@H](C#N)[C@@H](O)C4)c(C)cn3n1)CCC2 [Compound 132] the inhibition at 0.5 µM was 97%. For Cc1cn2nc([C@@H]3CCCCN3C(=O)c3cc(F)cc4c3OCOC4)cc2nc1N1CC[C@H](N)C1 [Compound 48], the inhibition at 0.5 µM was 100%. For Cc1cn2nc([C@@H]3CCCCN3C(=O)c3cc(Cl)ccc3NS(C)(=O)=O)cc2nc1N1C[C@@H](C#N)[C@@H](OC(=O)CCC(=O)NCCN2CCOCC2)C1 [Compound 209], the inhibition at 0.5 µM was 100%. Work on Cc1cn2nc([C@@H]3CCCCN3C(=O)c3ccccc3OC3CCCC3)cc2nc1N1CC[C@H](N)C1 [Compound 66] yielded an inhibition at 0.5 µM of 95%. Cc1cn2nc([C@@H]3CCCCN3C(=O)c3cc(Cl)ccc3NS(C)(=O)=O)cc2nc1N1C[C@H](C)NC[C@H]1C [Compound 24] was tested, and the inhibition at 0.5 µM was 30%. Compound Cc1cn2nc([C@@H]3CCCCN3C(=O)c3ncc(Cl)cc3C(F)(F)F)cc2nc1N1CC[C@H](N)C1 [Compound 104] has an inhibition at 0.5 µM of 56%. For Cc1cn2nc([C@@H]3CCCCN3C(=O)c3ccc(F)c(F)c3C)cc2nc1N1C[C@@H](C#N)[C@@H](O)C1 [Compound 149], the inhibition at 0.5 µM was 100%. With Cc1cn2nc([C@@H]3CCCCN3C(=O)c3cc(C(F)(F)F)ccn3)cc2nc1N1CC[C@H](N)C1 [Compound 86] the inhibition at 0.5 µM was 80%. For Cc1cn2nc([C@@H]3CCCCN3C(=O)c3cc(C(F)(F)F)ccn3)cc2nc1N1C[C@@H](C#N)[C@@H](O)C1 [Compound 168], the inhibition at 0.5 µM was 44%. With Cc1cc(F)ccc1C(=O)N1CCCC[C@H]1c1cc2nc(N3C[C@@H](C#N)[C@@H](O)C3)c(C)cn2n1 [Compound 155] the inhibition at 0.5 µM was 100%. Cc1ccc(F)cc1C(=O)N1CCCC[C@H]1c1cc2nc(N3C[C@@H](C#N)[C@@H](O)C3)c(C)cn2n1 [Compound 156] was tested, and the inhibition at 0.5 µM was 100%. For Cc1cn2nc([C@@H]3CCCCN3C(=O)c3cc(Cl)ccc3NS(C)(=O)=O)cc2nc1NCC(N)c1ccccc1 (some centres unmarked) [Compound 3], the inhibition at 0.5 µM was 100%. For Cc1cn2nc([C@@H]3CCCCN3C(=O)c3cccc4cc[nH]c34)cc2nc1N1C[C@@H](C#N)[C@@H](O)C1 [Compound 151], the inhibition at 0.5 µM was 100%. Cc1cn2nc([C@@H]3CCCCN3C(=O)c3cc(Cl)ccc3NS(C)(=O)=O)cc2nc1N1C[C@@H]2CCN[C@@H]2C1 [Compound 16] gave an inhibition at 0.5 µM of 71%.

Same assay, conditions: human respiratory syncytial virus, HEp-2, read-out: Percent inhibition at 0.5 μM
Compound Cc1ccc(NS(C)(=O)=O)c(C(=O)N2CCCC[C@H]2c2cc3nc(N4C[C@@H](C#N)[C@@H](O)C4)c(C)cn3n2)c1 [Compound 200] has an inhibition at 0.5 µM of 100%.

Reference: patent US8946238B2, “Pyrazolo[1,5-A]pyrimidines as antiviral agents” (Gilead Sciences, Inc., priority 2011, dated 2015)
